Measurements from patent US5198419A, “Formulated medicines for enhancing the efficacy of beta-lactam antibiotics in prophylaxis and treatment against infectious disease due to pathogenic bacteria” (Immuno Japan Inc., priority 1989, dated 1993).

Legend:
Escherichia coli #11 = test: Example 6: experimental infection in mice, ampicillin with or without apolactoferrin; format: in vivo, strain ddY; settings: p.o. immediately after 1.2×10^6 CFU/mouse
Method: (§1) For ED50 values, a range of amounts of antibiotics is given in the examples (e.g., penicillin G: 0.4, 0.2, 0.1, 0.05 mg/mouse). To calculate the ED50, groups of mice in the monotherapy groups and groups of mice in the combined therapy groups received the indicated amount of antibiotic (e.g., one group received 0.4 mg/mouse of penicillin G, one group received 0.2 mg/mouse of penicillin G, one group received 0.1 mg/mouse of penicillin G, one group received 0.05 mg/mouse of penicillin G).
Male mice, strain ddY, five weeks old, weighing an average of 21.5 g, were randomly allocated into groups (n=10), and they were intraperitoneally injected with Escherichia coli #11, 1.2×10^6 CFU/mouse. Immediately after the injection, the untreated control group was orally given 0.2 ml of distilled water, the second through the fifth groups were treated once orally by ampicillin (8, 4, 2 and 1 mg/mouse), and the sixth through the ninth groups with ampicillin (4, 2, 1 and 0.5 mg/mouse) plus apolactoferrin (1 mg/mouse) in 0.2 ml of distilled water. The mice were fed ad libitum and observed for one week under the same conditions as described in Example 1. […] It is apparent from the results that lactoferrin not only potentiates the efficacy of the cephalosporin class but also the penicillin class of antibiotics.

Proteus mirabilis GN79 = test: Example 7: experimental infection in mice, ampicillin with or without native lactoferrin; format: in vivo, strain ddY; settings: GN79, po, 168 h, 1.3 × 10^6 CFU/mouse
Method: as §1
Male mice, strain ddY, five weeks old, were randomly allocated into groups (n=10), and were intraperitoneally injected with Proteus mirabilis GN79 (1.3×10^6 CFU/mouse) or with Escherichia coli #11 (1.7×10^6 CFU/mouse) or with Klebsiella pneumoniae 3K25 (1.5×10^6 CFU/mouse). The doses are 1,000 times greater than the minimum lethal dose. Immediately after the injection, the first eight groups were orally given ampicillin, the second eight groups were orally given cephalexin, and the third eight groups were orally given cefaclor, respectively, each simultaneously with or without native lactoferrin (1 mg/mouse) in 0.2 ml of distilled water (see Table 7). All the mice were fed ad libitum and observed for one week under the same conditions as described in Example 1.

[1] = test system: Klebsiella pneumoniae strain 3K25; test: Example 4: experimental infection in mice, cefotetan with or without native lactoferrin; format: in vivo; settings: p.o. 1 h after 1×10^6 CFU/mouse
Method: as §1
The experimental design is similar to that of Example 3. The mice groups (n=6) were intraperitoneally injected with Klebsiella pneumoniae strain 3K25, 1×10^6 CFU/mouse, and one hour after the injection, orally active cephalosporin, cefotetan (2.0, 1.0, 0.5 and 0.25 mg/mouse) was orally administered with or without native lactoferrin (0.4 mg/mouse) in 0.2 ml physiological saline.

SMILES | ED50 (Escherichia coli #11; ampicillin combined therapy with apolactoferrin (1 mg/mouse)) [mg/mouse] | ED50 (Escherichia coli #11; ampicillin monotherapy) [mg/mouse] | ED50 (Proteus mirabilis GN79; ampicillin alone) [mg/kg] | ED50 (Proteus mirabilis GN79; ampicillin with lactoferrin (1 mg/mouse)) [mg/kg] | ED50 ([1]; cefotetan combined therapy with native lactoferrin (0.4 mg/mouse)) [mg/mouse] | ED50 ([1]; cefotetan monotherapy) [mg/mouse]
CC1(C)S[C@@H]2[C@H](NC(=O)[C@H](N)c3ccccc3)C(=O)N2[C@H]1C(=O)O [ampicillin] | 0.75 | 6.02 | 133 | 24.9 |  | 
CO[C@@]1(NC(=O)C2SC(=C(C(N)=O)C(=O)O)S2)C(=O)N2C(C(=O)O)=C(CSc3nnnn3C)CS[C@@H]21 (stereo partly drawn) [cefotetan] |  |  |  |  | 0.16 | 0.50
